How the values were obtained:
Type in all cases: in vivo
Euschistus heros = Euschistus heros (neotropical brown stink bug), soybean leaves sprayed, N2 nymphs; conditions: 120 h, application rate 200 ppm, 5 days after infestation, N2 nymphs, read-out: effect in at least one of the two categories (mortality or growth inhibition)
Experimental: Euschistus heros (Neotropical Brown Stink Bug)
Soybean leaves on agar in 24-well microtiter plates were sprayed with aqueous test solutions prepared from 10,000 ppm DMSO stock solutions. After drying the leaves were infested with N2 nymphs. The samples were assessed for mortality and growth inhibition in comparison to untreated samples 5 days after infestation.

Myzus persicae [1] = assay: Myzus persicae (green peach aphid), intrinsic activity; conditions: 120 h, test rate 12 ppm, 5 days after infestation, sucrose solution, infested pea seedlings, read-out: mortality
Description: Myzus persicae (Green Peach Aphid). Intrinsic Activity
Test compounds prepared from 10,000 ppm DMSO stock solutions were applied by pipette into 24-well microtiter plates and mixed with sucrose solution. The plates were closed with a stretched Parafilm. A plastic stencil with 24 holes was placed onto the plate and infested pea seedlings were placed directly on the Parafilm. The infested plate was closed with a gel blotting paper and another plastic stencil and then turned upside down. The samples were assessed for mortality 5 days after infestation.

Tetranychus urticae = Tetranychus urticae (two-spotted spider mite), feeding/contact activity; conditions: foliar, 192 h, application rate 200 ppm, 8 days after infestation, bean leaf discs, read-out: mortality on mixed population (mobile stages)
Experimental: Tetranychus urticae (Two-Spotted Spider Mite): Feeding/Contact Activity
Bean leaf discs on agar in 24-well microtiter plates were sprayed with aqueous test solutions prepared from 10,000 ppm DMSO stock solutions. After drying the leaf discs were infested with a mite population of mixed ages. The samples were assessed for mortality on mixed population (mobile stages) 8 days after infestation.

Spodoptera littoralis = Spodoptera littoralis (Egyptian cotton leaf worm), cotton leaf discs, L1 larvae; conditions: foliar, 72 h, application rate 200 ppm, 3 days after infestation, L1 larvae, read-out: control (mortality, anti-feedant effect or growth inhibition)
Experimental: Spodoptera littoralis (Egyptian Cotton Leaf Worm)
Cotton leaf discs were placed onto agar in 24-well microtiter plates and sprayed with aqueous test solutions prepared from 10,000 ppm DMSO stock solutions. After drying the leaf discs were infested with five L1 larvae. The samples were assessed for mortality, anti-feeding effect, and growth inhibition in comparison to untreated samples 3 days after infestation. Control of Spodoptera littoralis by a test sample is given when at least one of the categories mortality, anti-feedant effect, and growth inhibition is higher than the untreated sample.

Diabrotica balteata = Diabrotica balteata (corn root worm), maize sprouts sprayed, L2 larvae; conditions: 96 h, application rate 200 ppm, 4 days after infestation, L2 larvae, read-out: effect in at least one of the two categories (mortality or growth inhibition)
Experimental: Diabrotica Balteata (Corn Root Worm)
Maize sprouts placed onto an agar layer in 24-well microtiter plates were treated with aqueous test solutions prepared from 10,000 ppm DMSO stock solutions by spraying. After drying, the plates were infested with L2 larvae (6 to 10 per well). The samples were assessed for mortality and growth inhibition in comparison to untreated samples 4 days after infestation.

Thrips tabaci = Thrips tabaci (onion thrips), feeding/contact activity; conditions: foliar, 144 h, application rate 200 ppm, 6 days after infestation, sunflower leaf discs, mixed ages, read-out: mortality
Experimental: Thrips tabaci (Onion thrips) Feeding/Contact Activity
Sunflower leaf discs were placed on agar in 24-well microtiter plates and sprayed with aqueous test solutions prepared from 10,000 ppm DMSO stock solutions. After drying the leaf discs were infested with a thrips population of mixed ages. The samples were assessed for mortality 6 days after infestation.

Myzus persicae [2] = assay: Myzus persicae (green peach aphid), feeding/contact activity; conditions: foliar, 144 h, application rate 200 ppm, 6 days after infestation, sunflower leaf discs, mixed ages, read-out: mortality
Experimental: Myzus persicae (Green Peach Aphid): Feeding/Contact Activity
Sunflower leaf discs were placed onto agar in a 24-well microtiter plate and sprayed with aqueous test solutions prepared from 10,000 ppm DMSO stock solutions. After drying, the leaf discs were infested with an aphid population of mixed ages. The samples were assessed for mortality 6 days after infestation.

Plutella xylostella = Plutella xylostella (diamond back moth), artificial diet, L2 larvae; conditions: 120 h, application rate 200 ppm, 5 days after infestation, L2 larvae, read-out: effect in at least one of the two categories (mortality or growth inhibition)
Experimental: Plutella xylostella (Diamond Back Moth)
24-well microtiter plates with artificial diet were treated with aqueous test solutions prepared from 10,000 ppm DMSO stock solutions by pipetting. After drying, the plates were infested with L2 larvae (10 to 15 per well). The samples were assessed for mortality and growth inhibition in comparison to untreated samples 5 days after infestation.

Cc1cc(C2=NCC(c3cc(Cl)cc(Cl)c3)(C(F)(F)F)C2)ccc1C(=O)NC1CON(S(C)(=O)=O)C1 (stereo not drawn) [Compound A5, 4-[3-(3,5-dichlorophenyl)-3-(trifluoromethyl)-2,4-dihydropyrrol-5-yl]-2-methyl-N-(2-methylsulfonylisoxazolidin-4-yl)benzamide]
≥ 80%: percent effect (mortality or growth inhibition) at 200 ppm (Euschistus heros) | mortality at 12 ppm (Myzus persicae [1]) | mortality at 200 ppm (Tetranychus urticae) | percent control (mortality, anti-feedant effect or growth inhibition) at 200 ppm (Spodoptera littoralis) | percent effect (mortality or growth inhibition) at 200 ppm (Diabrotica balteata) | mortality at 200 ppm (Thrips tabaci) | mortality at 200 ppm (Myzus persicae [2]) | percent effect (mortality or growth inhibition) at 200 ppm (Plutella xylostella)

Cc1cc(C2=NCC(c3cc(Cl)c(F)c(Cl)c3)(C(F)(F)F)C2)ccc1C(=O)NC1CON(S(C)(=O)=O)C1 (stereo not drawn) [Compound A7, 4-[3-(3,5-dichloro-4-fluoro-phenyl)-3-(trifluoromethyl)-2,4-dihydropyrrol-5-yl]-2-methyl-N-(2-methylsulfonylisoxazolidin-4-yl)benzamide]
≥ 80%: percent effect (mortality or growth inhibition) at 200 ppm (Euschistus heros) | mortality at 12 ppm (Myzus persicae [1]) | mortality at 200 ppm (Tetranychus urticae) | percent control (mortality, anti-feedant effect or growth inhibition) at 200 ppm (Spodoptera littoralis) | percent effect (mortality or growth inhibition) at 200 ppm (Diabrotica balteata) | mortality at 200 ppm (Thrips tabaci) | mortality at 200 ppm (Myzus persicae [2]) | percent effect (mortality or growth inhibition) at 200 ppm (Plutella xylostella)

Cc1cc(C2=NCC(c3cc(Cl)c(Cl)c(Cl)c3)(C(F)(F)F)C2)ccc1C(=O)NC1CON(S(C)(=O)=O)C1 (stereo not drawn) [Compound A8, 2-methyl-N-(2-methylsulfonylisoxazolidin-4-yl)-4-[3-(3,4,5-trichlorophenyl)-3-(trifluoromethyl)-2,4-dihydropyrrol-5-yl]benzamide]
≥ 80%: percent effect (mortality or growth inhibition) at 200 ppm (Euschistus heros) | mortality at 12 ppm (Myzus persicae [1]) | mortality at 200 ppm (Tetranychus urticae) | percent control (mortality, anti-feedant effect or growth inhibition) at 200 ppm (Spodoptera littoralis) | percent effect (mortality or growth inhibition) at 200 ppm (Diabrotica balteata) | mortality at 200 ppm (Thrips tabaci) | mortality at 200 ppm (Myzus persicae [2]) | percent effect (mortality or growth inhibition) at 200 ppm (Plutella xylostella)

— patent publication US11104671B2, “Insecticidal compounds” (SYNGENTA PARTICIPATIONS AG, priority 2017, dated 2021)
